The text below walks through data of patent publication US12263277B2, “Uniaxially-aligned nanofiber scaffolds and methods for producing and using same” (Oridivus LLC, priority 2019, dated 2025).

“Also recorded” adds a separate entry of the source.

One data set has as its system S1PRs. The following applies: all of the S1PRs; cited from earlier work.
The test system of data set [1] is oronasal fistula (ONF) in the hard palate. Description: Murine oronasal fistula (ONF) model, wound healing after scaffold implantation. It is filed as in vivo, mice. From the text:
To understand the wound healing characteristics of the oral mucosa, the present disclosure provides an ONF model utilizing thermal injury for creating the ONF. In at least one embodiment, the ONF model permits study of the cellular and inflammatory infiltration to the wound site during the healing process. An exemplary analysis of FTY720 effects on ONF healing in the model includes, but is not limited to: 1) forming an ONF in each of a plurality of samples (e.g., mice); 2) dividing the mice into 3 groups, a no implant group, a group where blank nanofiber scaffolds are implanted, and a group where uniaxially-aligned nanofiber scaffolds with FTY720 are implanted; and 3) evaluating ONF healing results at predetermined time points (e.g., day 3, day 5, day 7, etc.).
To produce a Murine ONF model, 12 week old C57/b6 mice are obtained (for example from Jackson Laboratories) and anesthetized using intraperitoneal ketamine. According to one embodiment, the oral cavity is accessed using a retractor while the mice are spontaneously breathing. […] The time points include 0, 3, 5, and 7 days and healing of the ONF is assessed using histomorphometry while functional outcomes are measured evaluating for poor oral intake measured by body weight loss, dehydration (serum sodium using an ELIZA assay), and eventual death (Kaplan Meir curve).
After staining the slides, Hamamatsu NanoZoomer 2.0 HT processor was used to scan slides and they were then analyzed in Hamamatsu NDP.view2 Viewing Software. […]
To determine if a targeted auto-therapy induction of pro-regenerative monocytes and macrophages would lead to improved ONF healing, the delivery of FTY-720, a sphingosine analog that increases pro-regenerative monocytes and macrophages was tested via a nanofiber scaffold. […] With reference to FIGS. 13A-D, to examine the effects of the FTY-720 on the host inflammatory response, quantitative polymerase chain reaction (PCR) on the mucosal tissue surrounding the injury was performed and determined that IL-1 was decreased in the presence of FTY-720 whereas IL-6 and IL-10 were increased.

The test system of another data set is LY6C^lo monocytes. Kind of data set: Flow cytometry of hard palate mucosa in ONF model, monocytes. The data set is classed as in vivo, mice. From the text: (§1) FTY720 is a sphingosine-1-phosphate receptor analogue that is linked to LY6C^lo (anti-inflammatory) monocytes and M2 (Pro-regenerative) macrophages attraction. According to one embodiment, for analysis of lymphocyte populations, cells are stained for flow cytometry with one or more of the following antibodies: Zombie NIR™ Fixable Viability Kit (Biolegend), PE anti-mouse MERTK (Mer) Antibody (Biolegend), Brilliant Violet 711™ anti-mouse CD64 (FcγRI) Antibody (Biolegend), Brilliant Violet 510™ anti-mouse Ly-6C Antibody (Biolegend), FITC anti-mouse CD206 (MMR) Antibody (Biolegend), Brilliant Violet 421™ anti-mouse/human CD11b Antibody (Biolegend). In various embodiments, to detect and sort for anti-inflammatory LY6C^lo monocytes and M2 Macrophages, real-time polymerase chain reaction (PCR) analysis is performed with iQ SYBR green supermix (Bio-Rad, 1708882) in a Bio-Rad iCycler for 40 cycles to assess the expression of inflammatory IL-1, IL-4 and IL-6 and anti-inflammatory IL-10 and transcription factor Sox2, which is related to keratinocyte migration and proliferation. In one or more embodiments, slides are stained for H&E and Phospho-histone 3 to assess keratinocytes undergoing mitosis.
In various embodiments, flow cytometry of inflammatory cells is performed to characterize monocyte and macrophage phenotypes. In one or more embodiments, for analysis of lymphocyte populations, hard palate mucosa is harvested and digested in 1 mg/ml collagenase I (Sigma) for 45 minutes at 37 degrees Celsius. In at least one embodiment, the digested mucosa is filtered through a cell strainer to obtain a single cell suspension. According to one embodiment, the single-cell suspensions are stained for live cells using either Zombie Green or Zombie NIR (Biolegend) dyes in cell-culture grade PBS per manufacturer instructions. In various embodiments, cells are stained with cell phenotyping antibodies in a 1:1 volume ratio of 3% FBS and Brilliant Stain Buffer (BD Biosciences) according to standard procedures and analyzed on a FACS AriaIIIu flow cytometer (BD Biosciences). […] According to one embodiment, 30 μL of Accucheck Counting Beads (Invitrogen) are added per sample for absolute quantification of cell populations.
(§2) For analysis of lymphocyte populations, oral mucosal tissues were harvested and digested in 1 mg/ml collagenase I (Sigma) for 45 minutes at 37 degrees Celsius. […] Cells were then stained with cell phenotyping antibodies in a 1:1 volume ratio of 3% FBS and Brilliant Stain Buffer (BD Biosciences) according to standard procedures and analyzed on a FACS AriaIIIu flow cytometer (BD Biosciences). […]

A further data set deals with M2 macrophages. Description: Flow cytometry of hard palate mucosa in ONF model, macrophages. The data set is classed as in vivo, mice.
Text: as §1, with “In one or more embodiments, slides are stained for H&E and Phospho-histone 3 to assess keratinocytes undergoing mitosis.” left out
In various embodiments, flow cytometry of inflammatory cells is performed to characterize monocyte and macrophage phenotypes. […] In various embodiments, cells are stained with cell phenotyping antibodies in a 1:1 volume ratio of 3% FBS and Brilliant Stain Buffer (BD Biosciences) according to standard procedures and analyzed on a FACS AriaIIIu flow cytometer (BD Biosciences). […] According to one embodiment, 30 μL of Accucheck Counting Beads (Invitrogen) are added per sample for absolute quantification of cell populations.
as §2
Background: In flow cytometry, cells or beads pass a laser one at a time.

A further data set has as its system IL-1. Description: Quantitative PCR of hard palate mucosa around the injury, IL-1. It is filed as in vivo, mice. The note with it: vs blank scaffold. From the text:
(§3) FTY720 is a sphingosine-1-phosphate receptor analogue that is linked to LY6C^lo (anti-inflammatory) monocytes and M2 (Pro-regenerative) macrophages attraction. According to one embodiment, for analysis of lymphocyte populations, cells are stained for flow cytometry with one or more of the following antibodies: Zombie NIR™ Fixable Viability Kit (Biolegend), PE anti-mouse MERTK (Mer) Antibody (Biolegend), Brilliant Violet 711™ anti-mouse CD64 (FcγRI) Antibody (Biolegend), Brilliant Violet 510™ anti-mouse Ly-6C Antibody (Biolegend), FITC anti-mouse CD206 (MMR) Antibody (Biolegend), Brilliant Violet 421™ anti-mouse/human CD11b Antibody (Biolegend). […]
(§4) According to one embodiment, during oral cavity wound healing following injury, there is predominantly a pro-inflammatory lymphocytic infiltrate. […] According to one embodiment, the IL assessment is performed in samples with and without scaffold placement, and includes using quantitative PCR of hard palate mucosa at day 3, 5, and 7 and comparing results to controls. In at least one embodiment, serum is collected and evaluated for levels of IL1, IL6, IL10 and VEGF using ELIZA to determine if there are systemic alterations in inflammatory and vasculogenic gene regulation and compared to uninjured controls. […]

The test system of another data set is IL-6. Description: Quantitative PCR of hard palate mucosa around the injury, IL-6. It is filed as in vivo, mice. The note with it: vs blank scaffold.
Text: as §3, §4

A further data set concerns IL-10. Kind of data set: Quantitative PCR of hard palate mucosa around the injury, IL-10. The data set is classed as in vivo, mice. The following applies: vs blank scaffold.
Text: as §3, §4

Data set [2] has as its system palatine and surrounding hard palate bones. Kind of data set: μCT evaluation of hard palate bones after ONF creation. It is filed as in vivo, mice. The note with it: following ONF creation. The method, then:
According to one embodiment, similar to humans, the critical wound healing time point is immediately following hard palate injury (or surgery) and fistula healing is unlikely after this critical time period. To assess the critical wound healing time, in at least one embodiment, ONFs are created in Murine models and standard histomorphologic evaluation of the mice following injury at day 0, 3, 5, 7, and 14 days is performed. According to one embodiment, the specimens are assessed using H+E staining of coronal sections in […] (10 male and 10 female) each to evaluate: the width of the ONF, the presence or absence of inflammatory infiltrate at the wound edges, the formation of a basement membrane in the healing areas (using type IV collagen and laminin staining). In at least one embodiment, the exposure of the maxillary and palatine bones as well as the surrounding maxillary structures are evaluated using micro-computed tomography (μCT) imaging.
According to one embodiment, ONF area width is measured at each of the time points and compared to controls. […] In various embodiments, to measure the proliferative and apoptosis response following oral injury, proliferation and apoptosis are assessed. […]

A further data set deals with cutaneous wound. Kind of data set: Cutaneous wound healing / dorsal skinfold window chamber model. The data set is classed as in vivo. From the text: In one example, FTY720 and FTY720-P are released from 1 mm diameter thin films in a cutaneous dorsal skinfold window chamber for 3 days to investigate the in vivo gradient produced by H-ME PLGA film release of S1P receptor targeting compounds.
Multiple approaches can be used to improve the recruitment of the pro-regenerative monocytes and macrophages to cutaneous wounds.

Data set [3] is described as follows: In vitro release of FTY720 from controlled-release polymers. It is filed as physicochemical. The note with it: acid-capped L-A and methyl-ester capped H-ME polymers, incubation in vitro. From the text: In one or more embodiments, the S1PR agonist FTY720 is differentially released from polymers for controlled release (“acid-capped” L-A and “methyl-ester capped” H-ME polymers). […] According to one embodiment, an immunoregenerative approach is executed to control how M1 to M2 are spatially and temporally regulated by recruitment of anti-inflammatory monocytes (AM). In at least one embodiment, the immunoregenerative approach includes determining how localized administration of FTY720 is compartmentalized in vivo. In one or more embodiments, the phosphorylated form of the drug FTY720-P is primarily responsible for receptor mediated signaling and has much lower threshold effective concentrations than FTY720 at all of the S1PRs. In at least one embodiment, similar to S1P, FTY720-P must be dephosphorylated by LPP3 to enter the cell. According to one embodiment, once inside the cell, FTY720 can be phosphorylated by sphingosine kinase 2 (SPHK2) and subsequently exported from the cell by Spns2. In various embodiments, the ability of FTY720 to be reversibly phosphorylated allows it to undergo multiple cycles of signaling in the tissue, contributing to a sustained gradient. According to one embodiment, the regulatory roles of local gradients of FTY720 and FTY720-P are differentiable.

[4] abbreviates: cutaneous wound, local delivery.

For `CCCCCCCCc1ccc(CC[C@](N)(CO)COP(=O)(O)O)cc1` [FTY720-P], the “threshold effective concentrations relative to FTY720” value in the data set with S1PRs is “much lower”.
On to `CCCCCCCCc1ccc(CCC(N)(CO)CO)cc1` [FTY720], for which the ONF wound healing entry in [1] (day 5, vs blank scaffold) is listed as “wound contracture”; in [1] (day 7, vs blank scaffold), “complete healing”. Besides, the “ONF / oral cavity wound healing” value in data set [1] (no time point stated, vs blank scaffold) was “healing, including reepithelization; also recorded: improved wound healing; also recorded: greater injury healing and ONF prevention”. In the data set with LY6C^lo monocytes (day 3, flow cytometry, implanted scaffold, blank 12.7±5.7), the “LY6C^lo % of total CD11B+ cells” value came out at 22.5±5.6%. In addition, the “LY6Clo monocytes in wound bed” value in the data set with LY6C^lo monocytes (day 3, vs blank scaffolds) is listed as “increased”. For the same compound, in the data set on LY6C^lo monocytes (day 3 post-ONF formation, flow cytometry, implanted scaffold, blank 3.7%±0.9), the “LY6C^lo % of total cells” value is 5.7%±0.6. Besides, the “Ly6Clo monocytes in the wound bed” value in the data set with LY6C^lo monocytes (during healing, no time point stated, vs blank scaffolds) is listed as “increase”. In the data set with M2 macrophages (day 3, flow cytometry, implanted scaffold, blank 1.4±0.2%), the “M2 Macrophages % of total cells” value turned out to be 3.7±0.5%. For the same compound, the “M2 Macrophages % of Macrophages” value with M2 macrophages (day 3, flow cytometry, implanted scaffold, blank 34.7±6.4%) amounted to 63.6±3.9%. Moreover, the “migration of M2 macrophages into a wound bed” value in the data set with M2 macrophages (e.g. in the hard palate, no time point) is given as “increases the migration”; in the data set on cutaneous wound (cutaneous wound context) it was “increases the migration”. In addition, in the data set on IL-1, the IL-1 expression result is on record as “decreased”. Also, the IL-6 expression result in the data set with IL-6 is recorded as “increased”. In addition, the IL-10 expression entry with IL-10 is “increased”. In data set [2], the “μCT changes to the underlying bone” value was “did not reveal any changes”. For the same compound, the cutaneous wound healing result with cutaneous wound (setting [4]) is “improved wound healing”. Besides, the “recruitment of anti-inflammatory (AM, Ly6C^lo) monocytes” value in the data set with cutaneous wound (setting [4]) was “increases the frequency; also recorded: selectively recruits non-classical Ly6C^lo monocytes; also recorded: significantly increases the proportion; also recorded: recruits AM monocytes”. In the data set on cutaneous wound (cutaneous wound, thin film release, 3 days), the vascularity result is “increased vascularity”. Moreover, in data set [3], the “in vitro release profile” value is “initial burst in the first hours of incubation in vitro, followed by a delay and a second phase of release between 3 and 5 days”.
